Measured values as given in the supplement of paper PMC10307832.

What was measured:
Experiment in all cases: relative viability (nuclei count vs DMSO), 5 days (fraction); higher = more cells survive
Idelalisib + Bortezomib = compound: CC[C@H](Nc1ncnc2[nH]cnc12)c1nc2cccc(F)c2c(=O)n1-c1ccccc1 [Idelalisib] + CC(C)C[C@H](NC(=O)[C@H](Cc1ccccc1)NC(=O)c1cnccn1)B(O)O [Bortezomib] (partner 0.002 µM)
Method in brief: (§1)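 Lung cancer cell lines, seeded in 1536-well plates, were treated the following day by pin tool with a single drug or with five library-drug doses (not always all listed) in √10 steps on top of a fixed anchor-drug dose. Cells were fixed and nuclei stained in one step after 5 days, and nuclei were counted. Relative viability is the nuclei count for treated wells divided by that for vehicle wells, reported as medians of duplicate plates.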

Idelalisib + Pemetrexed = compound: CC[C@H](Nc1ncnc2[nH]cnc12)c1nc2cccc(F)c2c(=O)n1-c1ccccc1 [Idelalisib] + Nc1nc2[nH]cc(CCc3ccc(C(=O)N[C@@H](CCC(=O)O)C(=O)O)cc3)c2c(=O)[nH]1 [Pemetrexed] (partner 0.2 µM)
Method in brief: as §1

Pemetrexed + Linsitinib = compound: Nc1nc2[nH]cc(CCc3ccc(C(=O)N[C@@H](CCC(=O)O)C(=O)O)cc3)c2c(=O)[nH]1 [Pemetrexed] + C[C@]1(O)C[C@@H](c2nc(-c3ccc4ccc(-c5ccccc5)nc4c3)c3c(N)nccn32)C1 [Linsitinib] (partner 1 µM)
Method in brief: as §1

Idelalisib + Navitoclax = compound: CC[C@H](Nc1ncnc2[nH]cnc12)c1nc2cccc(F)c2c(=O)n1-c1ccccc1 [Idelalisib] + CC1(C)CCC(c2ccc(Cl)cc2)=C(CN2CCN(c3ccc(C(=O)NS(=O)(=O)c4ccc(N[C@H](CCN5CCOCC5)CSc5ccccc5)c(S(=O)(=O)C(F)(F)F)c4)cc3)CC2)C1 [Navitoclax] (partner 0.5 µM)
Method in brief: as §1

Row | Cell Line | relative viability (Idelalisib + Bortezomib; first compound 0.04 µM) | relative viability (Idelalisib + Bortezomib; first compound 0.1265 µM) | relative viability (Idelalisib + Bortezomib; first compound 0.4 µM) | relative viability (Idelalisib + Bortezomib; first compound 1.265 µM) | relative viability (Idelalisib + Bortezomib; first compound 4 µM) | relative viability (Idelalisib + Pemetrexed; first compound 0.04 µM) | relative viability (Idelalisib + Pemetrexed; first compound 0.1265 µM) | relative viability (Idelalisib + Pemetrexed; first compound 0.4 µM) | relative viability (Idelalisib + Pemetrexed; first compound 1.265 µM) | relative viability (Idelalisib + Pemetrexed; first compound 4 µM) | relative viability (Pemetrexed + Linsitinib; first compound 0.002 µM) | relative viability (Pemetrexed + Linsitinib; first compound 0.006325 µM) | relative viability (Pemetrexed + Linsitinib; first compound 0.02 µM) | relative viability (Pemetrexed + Linsitinib; first compound 0.06325 µM) | relative viability (Pemetrexed + Linsitinib; first compound 0.2 µM) | relative viability (Idelalisib + Navitoclax; first compound 0.04 µM) | relative viability (Idelalisib + Navitoclax; first compound 0.1265 µM) | relative viability (Idelalisib + Navitoclax; first compound 0.4 µM) | relative viability (Idelalisib + Navitoclax; first compound 1.265 µM) | relative viability (Idelalisib + Navitoclax; first compound 4 µM)
1 | 201T | 1.1 | 1.07 | 1.1 | 1.13 | 1.08 | 0.352 | 0.318 | 0.357 | 0.314 | 0.32 | 1.13 | 1.01 | 1.1 | 1.09 | 1.01 | 1.17 | 1.13 | 1.25 | 1.24 | 1.1
2 | A549 |  |  |  |  |  |  |  |  |  |  | 0.568 | 0.569 | 0.645 | 0.57 | 0.709 | 1.5 | 1.23 | 1.22 | 1.33 | 1.02
3 | A-427 | 1.03 | 0.903 | 0.883 | 1.05 | 0.913 | 1.11 | 1 | 0.925 | 0.998 | 0.955 | 1.02 | 1.09 | 1.08 | 1.13 | 1.1 | 0.939 | 0.91 | 1.01 | 1.06 | 0.811
4 | ABC-1 | 0.327 | 0.243 | 0.309 | 0.326 | 0.288 |  |  |  |  |  | 0.904 | 0.804 | 0.828 | 0.753 | 0.713 |  |  |  |  | 
5 | BEN | 0.985 | 0.709 | 0.756 | 0.803 | 0.732 | 0.824 | 0.709 | 0.895 | 0.736 | 0.724 | 0.855 | 0.84 | 0.897 | 0.868 | 0.731 | 0.0556 | 0.0685 | 0.0581 | 0.0746 | 0.0521
6 | CAL-12T | 1.08 | 1.12 | 0.856 | 1.24 | 0.936 | 1.34 | 0.925 | 1.22 | 1.21 | 1.23 | 0.776 | 0.744 | 0.932 | 0.996 | 0.782 | 1.24 | 1.32 | 1.14 | 1.29 | 1.06
7 | COR-L23 | 0.874 | 1.01 | 0.947 | 1.22 | 0.956 | 0.186 | 0.203 | 0.199 | 0.204 | 0.182 | 0.839 | 0.863 | 1.04 | 0.294 | 0.177 | 1.07 | 0.965 | 1.05 | 1.11 | 1.02
8 | COR-L 105 | 0.906 | 0.92 | 0.53 | 1.02 | 0.713 | 1.18 | 1.1 | 0.913 | 1.06 | 0.924 | 0.804 | 0.872 | 1.05 | 0.709 | 1.03 | 0.794 | 1.04 | 0.805 | 0.893 | 0.52
9 | Calu-6 | 1.13 | 0.991 | 0.937 | 1.02 | 1.07 |  |  |  |  |  |  | 0.964 | 1.08 | 0.977 | 0.72 | 0.987 | 0.938 | 0.755 | 0.822 | 0.776
10 | ChaGo-K-1 | 1.09 | 0.945 | 1.01 | 1.04 | 1.17 | 0.254 | 0.252 | 0.268 | 0.254 | 0.264 |  |  |  |  |  | 1.03 | 1.01 | 1.12 | 1.09 | 1.14
11 | EBC-1 | 0.646 | 0.603 | 0.587 | 0.505 | 0.444 |  |  |  |  |  | 0.864 | 0.73 | 0.894 | 0.919 | 0.605 | 0.413 | 0.409 | 0.359 | 0.442 | 0.212
12 | EKVX | 1.1 | 0.986 | 1.01 | 0.87 | 0.808 | 0.407 | 0.387 | 0.377 | 0.386 | 0.395 | 0.957 | 1.03 | 1.02 | 0.953 | 0.718 | 0.863 | 0.914 | 0.876 | 0.807 | 0.853
13 | EMC-BAC-2 | 1.12 | 1.15 | 1.05 | 1.13 | 1.04 | 0.484 | 0.44 | 0.477 | 0.435 | 0.43 | 0.541 | 0.778 | 0.794 | 0.826 | 0.844 | 1.13 | 1.2 | 1.12 | 1.21 | 1.06
14 | EPLC-272H | 0.904 | 0.858 | 1.05 | 0.935 | 0.851 | 0.303 | 0.386 | 0.317 | 0.23 | 0.347 | 1.06 | 1.07 | 1.19 | 0.959 | 1.12 | 1.08 | 1.14 | 1 | 1 | 0.959
15 | H3255 | 0.882 | 0.888 | 0.807 | 0.807 | 0.829 | 0.692 | 0.551 | 0.55 | 0.561 | 0.488 | 0.83 | 0.976 | 1.04 | 0.946 | 0.768 | 0.617 | 0.513 | 0.506 | 0.415 | 0.38
16 | HARA | 1.27 | 1.02 | 1.08 | 1.2 | 1.1 | 0.24 | 0.243 |  | 0.222 | 0.247 | 0.876 | 0.969 | 0.922 | 0.822 | 0.292 | 1.2 | 1.11 | 1.17 | 1.16 | 1.09
17 | HCC-15 | 0.998 | 1.11 | 0.899 | 1.1 | 1.02 | 0.242 | 0.22 | 0.213 | 0.22 | 0.221 | 0.857 | 0.773 | 0.922 | 0.753 | 0.518 | 0.692 | 0.712 | 0.67 | 0.699 | 0.591
18 | HCC-44 | 0.825 | 0.946 | 0.908 | 0.984 | 0.825 | 0.684 | 0.664 | 0.652 | 0.586 | 0.687 | 0.598 | 0.625 | 0.73 | 0.665 | 0.536 | 1.01 | 0.925 | 0.871 | 1.07 | 0.927
